# Reference: PMC12608305, “Rapid Hemi-Synthesis of Multifunctional Amphiphilic Derivatives Based on Polyphenolic Extractives: Surface Activity, Antioxidant and Antibacterial Properties” (Molecules, 2025)
# Where two headings read alike, the source gives them in different places.
# Key:
# [1] = Water solubility by saturating water, lyophilizing and weighing; format: physicochemical; conditions: thermodynamic from solid; saturated water
# Excerpt: Solubility in water was expressed in mol/L (M).
# Escherichia coli = experiment: Antibacterial activity by resazurin reduction test; format: cell-based; conditions: fluorescence over 72 h, compounds in DMSO, triplicate, read-out: Antibacterial Activity Against E. coli: IC50
# Excerpt: These properties are usually studied by dilution and disk diffusion assay. The resazurin test is another method that can be used for measuring antibacterial activity. It is a protocol based on cell viability assays. […] This process leads to the formation of a pink fluorescent substance called resorufin. This reduction allows bacterial metabolic activity to be measured directly by measuring fluorescence. This is used to determine the antibacterial activity of the compounds being tested, using a fluorescence microplate reader. The lower the resorufin production, the lower the measured fluorescence and the higher the antibacterial activity.
# Resazurin is a blue colorant that reduces to the fluorescent pink resorufin when metabolized by the cells from bacterial respiratory chains. The metabolic activity of the cells was measured by reading the fluorescence over 72 h using a BioTek FLx800 Fluorescence Microplate Reader.
# Strains of Escherichia coli were cultured for 12 h on solid LB medium (Luria–Bertani) at 35 °C. The next day, some colonies were taken and placed in a nutrient broth and incubated at 35 °C until an optical density of 0.4 was obtained. […] A control with ethoxyethanol was performed. A positive control to verify the growth of the bacteria in the absence of catechin or hemi-synthesis compound was performed as well. The IC50 was calculated using the formula IC50 = (y − b)/a obtained from the equation of the line y = ax + b, where a is the directing coefficient and b the y-intercept. Each measurement was conducted in triplicate.
# [2] = Surface tension in water by the Wilhelmy plate method (surfactant properties); format: physicochemical; conditions: 25 °C; for Minimum occupied area per molecule at the air–water interface (σ): calculated from curve log C vs. γ; for Critical aggregation concentration (CAC): from curve log C vs. γ
# Protocol: The surface tension (γ) in water was determined using the Wilhelmy plate method at 25 °C. […] With this curve, parameters such as critical aggregation concentration (CAC) and minimum occupied area per molecule at the air–water interface (σ) were calculated, as well as the surface tension that remains constant from CAC (γw).
# Surface tension (γ) was obtained by the Wilhelmy plate method, using a Force Tensiometer KRUSS at 25 °C. […] The curve log C vs. γ allowed us to calculate critical aggregate concentration (CAC), minimum occupied area per molecule at the air–water interface (σ) and the surface tension (γw) that remains constant after the CAC was obtained. Each measurement was conducted in triplicate.
# [3] = Radical scavenging activity by the DPPH method; format: biochemical; conditions: DPPH 10^−4 M in methanol, triplicate
# Protocol: This method measures the antioxidant capacity of a compound to reduce the purple-colored DPPH radical solution to yellow-colored DPPH-H. DPPH solution was prepared at a concentration of 10^−4 M in methanol. The IC50 was calculated using the formula IC50 = (y − b)/a obtained from the equation of the line y = ax + b where a is the directing coefficient and b the y-intercept. Each measurement was conducted in triplicate.
# E. coli = tested on: E. coli; design: method as in PMID 743641; conditions: cited from earlier work
# [4] = DPPH; cited from earlier work
# [5] = design: method as in doi:10.1016/j.fluid.2014.09.013; conditions: anhydrous catechin; cited from earlier work
compound,measurement,setting,value
"CCCCCCCCCCCCCC(=O)N[C@@H](C)C(=O)OC1Cc2c(O)cc(O)cc2OC1c1ccc(O)c(O)c1 (stereo partly shown) [7c, 2-(3,4-Dihydroxyphenyl)-5,7-dihydroxychroman-3-yl tetradecanoylalaninate]",solubility,[1],580 µM
same,IC50,Escherichia coli,23 ± 1 mM
same,Surface tension from CAC (γw),[2],33 mN/m
same,Minimum occupied area per molecule at the air–water interface (σ),[2],19 Å^2/molecule
same,Critical aggregation concentration (CAC),[2],40 µM
same,Radical Scavenging Activity: IC50,[3],2.01 ± 0.05 mg/L
"Cc1cc(C(C)(C)C)c(O)c(C(C)(C)C)c1 [BHT, Butylated hydroxytoluene]",effect on growth of E. coli,E. coli; regardless of the concentration,fails to decrease the growth of E. coli
same,Radical Scavenging Activity: IC50,[4],12.8 ± 0.08 mg/L
O=C(OC[C@H]1O[C@@H](OC(=O)c2cc(O)c(O)c(OC(=O)c3cc(O)c(O)c(O)c3)c2)[C@H](OC(=O)c2cc(O)c(O)c(OC(=O)c3cc(O)c(O)c(O)c3)c2)[C@@H](OC(=O)c2cc(O)c(O)c(OC(=O)c3cc(O)c(O)c(O)c3)c2)[C@@H]1OC(=O)c1cc(O)c(O)c(OC(=O)c2cc(O)c(O)c(O)c2)c1)c1cc(O)c(O)c(OC(=O)c2cc(O)c(O)c(O)c2)c1 [tannic acid],Radical Scavenging Activity: IC50,[4],23.65 mg/L
O=C1c2c(O)cc(O)cc2OC(c2ccc(O)c(O)c2)C1O (stereo not shown) [taxifolin],Radical Scavenging Activity: IC50,[4],10.06 ± 1.08 mg/L
"CCCCCCCCCCCCCC(=O)OC1Cc2c(O)cc(O)cc2OC1c1ccc(O)c(O)c1 (stereo not shown) [6c, 2-(3,4-Dihydroxyphenyl)-5,7-dihydroxychroman-3-yl tetradecanoate]",solubility,[1],4800 µM
same,Surface tension from CAC (γw),[2],41 mN/m
same,Minimum occupied area per molecule at the air–water interface (σ),[2],23 Å^2/molecule
same,Critical aggregation concentration (CAC),[2],590 µM
"CCCCCCCCCCCC(=O)N[C@@H](C)C(=O)OC1Cc2c(O)cc(O)cc2OC1c1ccc(O)c(O)c1 (stereo partly shown) [7b, 2-(3,4-Dihydroxyphenyl)-5,7-dihydroxychroman-3-yl dodecanoylalaninate]",solubility,[1],360 µM
same,IC50,Escherichia coli,34 ± 3 mM
same,Surface tension from CAC (γw),[2],32 mN/m
same,Minimum occupied area per molecule at the air–water interface (σ),[2],10 Å^2/molecule
same,Critical aggregation concentration (CAC),[2],50 µM
same,Radical Scavenging Activity: IC50,[3],2.42 ± 0.06 mg/L
COc1cc(C[C@@H](CO)[C@H](CO)Cc2ccc(O)c(OC)c2)ccc1O [secoisolariciresinol],Radical Scavenging Activity: IC50,[4],9.39 ± 0.01 mg/L
O=c1c(O)c(-c2ccc(O)c(O)c2)oc2cc(O)cc(O)c12 [quercetin],Radical Scavenging Activity: IC50,[4],1.59 ± 0.02 mg/L
O=C(O)c1cc(O)c(O)c(O)c1 [gallic acid],Radical Scavenging Activity: IC50,[4],2.04 ± 0.03 mg/L
O=C(O)/C=C/c1ccc(O)c(O)c1 [caffeic acid],Radical Scavenging Activity: IC50,[4],10.64 mg/L
"CCCCCCCCCCCCCCCC(=O)OC1Cc2c(O)cc(O)cc2OC1c1ccc(O)c(O)c1 (stereo not shown) [6d, 2-(3,4-Dihydroxyphenyl)-5,7-dihydroxychroman-3-yl hexadecanoate]",solubility,[1],240 µM
same,Surface tension from CAC (γw),[2],42 mN/m
same,Minimum occupied area per molecule at the air–water interface (σ),[2],29 Å^2/molecule
same,Critical aggregation concentration (CAC),[2],10 µM
"CCCCCCCCCCCCCCCC(=O)N[C@@H](C)C(=O)OC1Cc2c(O)cc(O)cc2OC1c1ccc(O)c(O)c1 (stereo partly shown) [7d, 2-(3,4-Dihydroxyphenyl)-5,7-dihydroxychroman-3-yl hexadecanoylalaninate]",solubility,[1],22 µM
same,Surface tension from CAC (γw),[2],32 mN/m
same,Minimum occupied area per molecule at the air–water interface (σ),[2],45 Å^2/molecule
same,Critical aggregation concentration (CAC),[2],2 µM
same,Radical Scavenging Activity: IC50,[3],26.73 ± 0.43 mg/L
"COc1ccc(O)c(C(C)(C)C)c1 [BHA, Butylated hydroxyanisole]",growth of E. coli,E. coli; at concentrations above 100 μg/mL,33%
same,Radical Scavenging Activity: IC50,[4],21.3 ± 0.12 mg/L
"CCCCCCCC(=O)OC1Cc2c(O)cc(O)cc2OC1c1ccc(O)c(O)c1 (stereo not shown) [6a, 2-(3,4-Dihydroxyphenyl)-5,7-dihydroxychroman-3-yl octanoate]",solubility,[1],6000 µM
same,Surface tension from CAC (γw),[2],43 mN/m
same,Minimum occupied area per molecule at the air–water interface (σ),[2],14 Å^2/molecule
same,Critical aggregation concentration (CAC),[2],890 µM
"Oc1cc(O)c2c(c1)O[C@H](c1ccc(O)c(O)c1)[C@@H](O)C2 [Catechin, (+)-catechin, reference compound]",IC50,Escherichia coli,36 ± 2 mM
same,Water Solubility,[5],15700 µM
same,Radical Scavenging Activity: IC50,[3],2.43 ± 0.03 mg/L
"CCCCCCCCCCCC(=O)OC1Cc2c(O)cc(O)cc2OC1c1ccc(O)c(O)c1 (stereo not shown) [6b, 2-(3,4-Dihydroxyphenyl)-5,7-dihydroxychroman-3-yl dodecanoate]",solubility,[1],4800 µM
same,Surface tension from CAC (γw),[2],49 mN/m
same,Minimum occupied area per molecule at the air–water interface (σ),[2],17 Å^2/molecule
same,Critical aggregation concentration (CAC),[2],680 µM
"CCCCCCCC(=O)N[C@@H](C)C(=O)OC1Cc2c(O)cc(O)cc2OC1c1ccc(O)c(O)c1 (stereo partly shown) [7a, 2-(3,4-Dihydroxyphenyl)-5,7-dihydroxychroman-3-yl octanoylalaninate]",solubility,[1],1300 µM
same,IC50,Escherichia coli,32 ± 3 mM
same,Surface tension from CAC (γw),[2],35 mN/m
same,Minimum occupied area per molecule at the air–water interface (σ),[2],8 Å^2/molecule
same,Critical aggregation concentration (CAC),[2],100 µM
same,Radical Scavenging Activity: IC50,[3],2.06 ± 0.04 mg/L
